Common to all, as to assay type: functional
The subject of one test is Acinetobacter baumannii. Nature of the test: Antibacterial activity against Acinetobacter baumannii BAA 1605 assessed as reduction in bacterial growth measured after 18 to 24 hrs by broth microdilution method. The note with it: time 18-24 hrs. For orientation: Dilution methods test growth across graded concentrations, often in twofold steps.
For another test, the system named is Escherichia coli. Nature of the test: Antibacterial activity against Escherichia coli ATCC 25922 assessed as reduction in bacterial growth measured after 18 to 24 hrs by broth microdilution method. The note with it: time 18-24 hrs.
The next test has as its system Klebsiella pneumoniae. Nature of the test: Antibacterial activity against Klebsiella pneumoniae BAA 1705 assessed as reduction in bacterial growth measured after 18 to 24 hrs by broth microdilution method. The conditions noted are these: time 18-24 hrs.
Another test concerns Bacillus subtilis. As to the kind of experiment: Antibacterial activity against Bacillus subtilis IITKSM1 assessed as reduction in bacterial growth measured after 18 to 24 hrs by broth microdilution method. The conditions noted are these: time 18-24 hrs.
The test system of test [1] is Staphylococcus aureus. Nature of the test: Antibacterial activity against Staphylococcus aureus ATCC 29213 assessed as reduction in bacterial growth measured after 18 to 24 hrs by broth microdilution method. The note with it: time 18-24 hrs.
A further test concerns Pseudomonas aeruginosa. Nature of the test: Antibacterial activity against Pseudomonas aeruginosa ATCC 27853 assessed as reduction in bacterial growth measured after 18 to 24 hrs by broth microdilution method. The note with it: time 18-24 hrs.
A further test concerns Enterococcus faecalis. Nature of the test: Antibacterial activity against Enterococcus faecalis ATCC 35550 assessed as reduction in bacterial growth measured after 18 to 24 hrs by broth microdilution method. The note with it: time 18-24 hrs.
The test system of test [2] is Staphylococcus aureus. As to the kind of experiment: Antibacterial activity against Staphylococcus aureus assessed as reduction in bacterial growth.
In test [3] the test system is Staphylococcus aureus. Nature of the test: Antibacterial activity against vacomycin-resistant Staphylococcus aureus VRS 1 assessed as reduction in bacterial growth measured after 18 to 24 hrs by broth microdilution method. The conditions noted are these: time 18-24 hrs.
Test [4] concerns Staphylococcus aureus. Nature of the test: Antibacterial activity against vacomycin-resistant Staphylococcus aureus VRS 4 assessed as reduction in bacterial growth measured after 18 to 24 hrs by broth microdilution method. The note with it: time 18-24 hrs.
Test [5] has as its system Staphylococcus aureus. Nature of the test: Antibacterial activity against methicillin-resistant Staphylococcus aureus NRS 119 assessed as reduction in bacterial growth measured after 18 to 24 hrs by broth microdilution method. The conditions noted are these: time 18-24 hrs.
The subject of test [6] is Staphylococcus aureus. As to the kind of experiment: Antibacterial activity against methicillin-resistant Staphylococcus aureus NRS 100 assessed as reduction in bacterial growth measured after 18 to 24 hrs by broth microdilution method. The conditions noted are these: time 18-24 hrs.
Test [7] relates to Staphylococcus aureus. Nature of the test: Antibacterial activity against methicillin-resistant Staphylococcus aureus NRS 129 assessed as reduction in bacterial growth measured after 18 to 24 hrs by broth microdilution method. The note with it: time 18-24 hrs.
Test [8] has as its system Staphylococcus aureus. As to the kind of experiment: Antibacterial activity against vacomycin-resistant Staphylococcus aureus VRS 12 assessed as reduction in bacterial growth measured after 18 to 24 hrs by broth microdilution method. The note with it: time 18-24 hrs.
The subject of test [9] is Staphylococcus aureus. As to the kind of experiment: Antibacterial activity against methicillin-resistant Staphylococcus aureus NRS 193 assessed as reduction in bacterial growth measured after 18 to 24 hrs by broth microdilution method. The note with it: time 18-24 hrs.
In test [10] the test system is Staphylococcus aureus. As to the kind of experiment: Antibacterial activity against methicillin-resistant Staphylococcus aureus NRS 192 assessed as reduction in bacterial growth measured after 18 to 24 hrs by broth microdilution method. The note with it: time 18-24 hrs.
Test [11] relates to Staphylococcus aureus. As to the kind of experiment: Antibacterial activity against methicillin-resistant Staphylococcus aureus NRS 194 assessed as reduction in bacterial growth measured after 18 to 24 hrs by broth microdilution method. The note with it: time 18-24 hrs.
The test system of test [12] is Staphylococcus aureus. Nature of the test: Antibacterial activity against methicillin-resistant Staphylococcus aureus NRS 186 assessed as reduction in bacterial growth measured after 18 to 24 hrs by broth microdilution method. The note with it: time 18-24 hrs.
Test [13] deals with Staphylococcus aureus. Nature of the test: Antibacterial activity against methicillin-resistant Staphylococcus aureus NRS 191 assessed as reduction in bacterial growth measured after 18 to 24 hrs by broth microdilution method. The note with it: time 18-24 hrs.
The subject of test [14] is Staphylococcus aureus. As to the kind of experiment: Antibacterial activity against methicillin-resistant Staphylococcus aureus NRS 198 assessed as reduction in bacterial growth measured after 18 to 24 hrs by broth microdilution method. The conditions noted are these: time 18-24 hrs.
Test [15] concerns Staphylococcus aureus. As to the kind of experiment: Antibacterial activity against methicillin-sensitive Staphylococcus aureus ATCC 29213 assessed as reduction in bacterial growth measured after 18 to 24 hrs by broth microdilution method. The note with it: time 18-24 hrs.

Among the data in ChEMBL document CHEMBL6177993, “De Novo 3-(Phenylcarbamoyl) Benzoate Analogues: Efficacy against Multidrug-Resistant S. aureus and Elucidation of the Biodistribution Profile” (J Med Chem, 2025) are MIC values, retold here.

≈ marks a conversion by molar mass, not a printed value.

The term MIC denotes the least concentration at which growth counts as inhibited. `CC(c1ccccc1)c1cc(C(C)(C)C)cc(C(C)c2ccccc2)c1NC(=O)c1cccc(C(=O)O)c1` (stereo not given): the MIC in the test with Acinetobacter baumannii, in the test with Escherichia coli, in the test on Klebsiella pneumoniae, in the test with Bacillus subtilis, in the test with Staphylococcus aureus [1] and with Pseudomonas aeruginosa was greater than 64 µg/mL throughout. Moreover, the MIC with Enterococcus faecalis was greater than 64 µg/mL.

Regarding `CCOc1cc(C(c2ccccc2)c2ccccc2)c(NC(=O)c2cccc(C(=O)O)c2)c(C(c2ccccc2)c2ccccc2)c1`, the MIC in the test with Acinetobacter baumannii is greater than 64 µg/mL; with Escherichia coli, greater than 64 µg/mL; in the test on Klebsiella pneumoniae it was greater than 64 µg/mL; in the test with Bacillus subtilis, 1 µg/mL (≈ 1.62 µM); in the test with Staphylococcus aureus [1] it was 64 µg/mL (≈ 104 µM); in the test with Pseudomonas aeruginosa it was greater than 64 µg/mL. In addition, the minimal inhibitory concentration (MIC) with Enterococcus faecalis came out at 64 µg/mL (≈ 104 µM).

`CCCCc1cc(C(c2ccccc2)c2ccccc2)c(NC(=O)c2cccc(C(=O)O)c2)c(C(c2ccccc2)c2ccccc2)c1`: the MIC is greater than 64 µg/mL in the test with Acinetobacter baumannii; greater than 64 µg/mL in the test on Escherichia coli; greater than 64 µg/mL in the test on Klebsiella pneumoniae; 8 µg/mL (≈ 12.7 µM) in the test with Bacillus subtilis; 16 µg/mL (≈ 25.4 µM) with Staphylococcus aureus [1]; greater than 64 µg/mL in the test on Pseudomonas aeruginosa. Besides, the MIC with Enterococcus faecalis was found to be 2 µg/mL (≈ 3.18 µM).

Consider `O=C(O)c1cccc(C(=O)Nc2c(C(c3ccccc3)c3ccccc3)cc(F)cc2C(c2ccccc2)c2ccccc2)c1`, for which the MIC was greater than 64 µg/mL in the test with Acinetobacter baumannii; greater than 64 µg/mL with Escherichia coli; greater than 64 µg/mL in the test on Klebsiella pneumoniae; 1 µg/mL (≈ 1.69 µM) in the test on Bacillus subtilis; 4 µg/mL (≈ 6.76 µM) with Staphylococcus aureus [1]; greater than 64 µg/mL with Pseudomonas aeruginosa. Also, the MIC in the test with Enterococcus faecalis worked out at 2 µg/mL (≈ 3.38 µM).

Take `O=C(O)c1cccc(C(=O)Nc2c(C(c3ccccc3)c3ccccc3)cc(C(F)(F)F)cc2C(c2ccccc2)c2ccccc2)c1`: the MIC is greater than 64 µg/mL in the test on Acinetobacter baumannii; greater than 64 µg/mL in the test with Escherichia coli; greater than 64 µg/mL in the test on Klebsiella pneumoniae; 1 µg/mL (≈ 1.56 µM) with Bacillus subtilis; greater than 64 µg/mL in the test on Staphylococcus aureus [1]; greater than 64 µg/mL with Pseudomonas aeruginosa. Besides, the MIC in the test with Enterococcus faecalis is 16 µg/mL (≈ 24.9 µM).

Regarding `O=C(O)c1cccc(C(=O)Nc2c(C(c3ccccc3)c3ccccc3)cc(OC(F)F)cc2C(c2ccccc2)c2ccccc2)c1`, the MIC is greater than 64 µg/mL in the test with Acinetobacter baumannii; greater than 64 µg/mL with Escherichia coli; greater than 64 µg/mL with Klebsiella pneumoniae; 1 µg/mL (≈ 1.56 µM) in the test with Bacillus subtilis; 4 µg/mL (≈ 6.25 µM) with Staphylococcus aureus [1]; greater than 64 µg/mL in the test on Pseudomonas aeruginosa. In addition, the MIC in the test with Enterococcus faecalis was 2 µg/mL (≈ 3.13 µM).

For the molecule `COc1ccc2c(c[n+]3c4c2ccc2c5c(cc(c24)CC3)OCO5)c1NC(=O)c1csnn1.[Cl-]`, the MIC with Staphylococcus aureus [2] came out at 2 µg/mL.

Regarding `COc1cc(C(c2ccccc2)c2ccccc2)c(NC(=O)c2cccc(C(=O)O)c2)c(C(c2ccccc2)c2ccccc2)c1`, the MIC was greater than 64 µg/mL in the test on Acinetobacter baumannii; greater than 64 µg/mL in the test with Escherichia coli; greater than 64 µg/mL in the test with Klebsiella pneumoniae; 32 µg/mL (≈ 53 µM) with Bacillus subtilis; 8 µg/mL (≈ 13.3 µM) in the test on Staphylococcus aureus [1]; greater than 64 µg/mL in the test on Pseudomonas aeruginosa. Also, the MIC in the test with Enterococcus faecalis stood at 64 µg/mL (≈ 106 µM).

Take `C[C@H]1COc2c(N3CCN(C)CC3)c(F)cc3c(=O)c(C(=O)O)cn1c23` [LEVOFLOXACIN ANHYDROUS]: the MIC in the test with Staphylococcus aureus [3] was 32 µg/mL (≈ 88.6 µM); in the test on Staphylococcus aureus [4], greater than 64 µg/mL; in the test on Staphylococcus aureus [5] it was 16 µg/mL (≈ 44.3 µM); in the test with Staphylococcus aureus [6] it was 0.25 µg/mL (≈ 0.692 µM); in the test on Staphylococcus aureus [7], 0.25 µg/mL (≈ 0.692 µM); with Staphylococcus aureus [8], 32 µg/mL (≈ 88.6 µM). For the same molecule, the MIC with Staphylococcus aureus [9] amounted to 32 µg/mL (≈ 88.6 µM); in the test with Staphylococcus aureus [10], 8 µg/mL (≈ 22.1 µM); with Staphylococcus aureus [11], 0.125 µg/mL (≈ 0.346 µM); with Staphylococcus aureus [12], 4 µg/mL (≈ 11.1 µM); in the test with Staphylococcus aureus [13] it was 16 µg/mL (≈ 44.3 µM); in the test with Staphylococcus aureus [14], 32 µg/mL (≈ 88.6 µM). Moreover, the MIC in the test with Staphylococcus aureus [15] is 0.25 µg/mL (≈ 0.692 µM).

As to `O=C(O)c1cccc(C(=O)Nc2c(C(c3ccccc3)c3ccccc3)cc(C(c3ccccc3)c3ccccc3)cc2C(c2ccccc2)c2ccccc2)c1`, the MIC was greater than 64 µg/mL in the test with Acinetobacter baumannii; greater than 64 µg/mL in the test on Escherichia coli; greater than 64 µg/mL with Klebsiella pneumoniae; 64 µg/mL (≈ 86.5 µM) in the test on Bacillus subtilis; greater than 64 µg/mL in the test with Staphylococcus aureus [1]; greater than 64 µg/mL in the test on Pseudomonas aeruginosa. Further, the MIC in the test on Enterococcus faecalis is 8 µg/mL (≈ 10.8 µM).
